Laboratory results: patent publication US20240109865A1, “INDAZOLE COMPOUNDS AS KINASE INHIBITORS” (TYRA BIOSCIENCES, INC., priority 2020, published 2024)

Legend:
[1] = biological target: FGFR3-BAIAP2L1 Ba/F3 cells (Homo sapiens, UniProt P22607); experiment: Ba/F3 cell viability assay (CellTiter-Glo 2.0), FGFR3-BAIAP2L1 Ba/F3; format: cell-based; conditions: for Ba/F3 FGFR1/FGFR3 Selectivity: FGFR3 > FGFR1 selectivity ratio in Ba/F3 FGFR fusion cell based assays; for IC50: read-out: Ba/F3 Cells FGFR3 (IC50 nM), FGFR3-BAIAP2L1 Ba/F3 cells, 48 hours, Cell Titer Glo 2.0
Outline: (§1)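 IL3-independent Ba/F3 lines driven by FGFR1-BCR or FGFR3-BAIAP2L1 fusions, in RPMI1640/10% FBS. 9-dose 10-fold series from 30 μM, triplicate, 48 h at 37 °C; viability by CellTiter-Glo 2.0 ATP luminescence relative to DMSO control, IC50 from 4-parameter sigmoidal fit.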

[2] = tested on: UM-UC-14 cells (FGFR3(S249C)); experiment: UM-UC-14 cancer cell line cell viability assay (CellTiter-Glo 2.0); format: cell-based; conditions: UMUC14, 72 hours, Cell Titer Glo 2.0
From the text: Experimental Purpose: To detect the change of intracellular ATP by Cell Titer-Glo® and to evaluate the inhibitory effect of the compounds on cancer cell lines by determining the in vitro IC50 value of the compounds.
Cell Titer-Glo® 2.0 Luminescent cell viability assay reagent was purchased from Promega (Madison, WI). RT112/84 and KG-1 cell lines were purchased from American Type Culture Collection (Manassas, VA). UM-UC-14 cell line was purchased from Sigma (St. Louis, MO). RT112/84, UM-UC-14, and KG-1 cells were cultured in RPMI1640 media supplemented with 10% fetal bovine serum. Cultures were maintained at 37° C. in a humidified atmosphere of 5% C02 and 95% air.
Cell Viability Assay Procedure: Cells were plated in 96-well clear bottom/white plates (Corning #3903) at 10,000 cells/well in 100 μl of media, incubated overnight. The next day, test compound DMSO stock solutions were made at 10 mM and 2 μM final concentration. Compounds were then added to cells in a 9-dose, 10-fold dilution series starting at 30 μM with an HP 300e Digital Dispenser (each dose was applied in triplicate). DMSO was backfilled to each well up to 301 nL total volume of test compound+DMSO, and a total of 301 nL DMSO was added to a control/no test compound well in triplicate. The cells in cell culture plates were incubated with the compounds at 37° C. and 5% C02 for 72 hours. Then 50 μl of Cell Titer Glo 2.0 reagent was added to each well of the cell culture plates. The contents were covered from light and mixed on an orbital shaker at room temperature for 10 min. Luminescence was recorded by a Synergy H1 Microplate Reader (Biotek, Winooski, VT). Cells were assessed as a percentage of DMSO only treated control cells. Curves were plotted and IC50 values were calculated using the GraphPad Prism 8 program based on a sigmoidal dose-response equation (4 parameter).

FGFR1 = FGFR1 (Homo sapiens (Human), UniProt P11362); experiment: Kinase assay, binding constants (Kd), kinase-tagged T7 phage, qPCR
Outline: (§2)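 Competition binding: kinase-tagged T7 phage lysates mixed with immobilized biotinylated ligand on streptavidin beads plus compound (11-point 3-fold dilution series, 0.9% DMSO final). Bound kinase eluted with free ligand and quantified by qPCR. Kd from Hill equation fit, slope fixed at −1.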

FGFR3 = FGFR3 (Homo sapiens (Human), UniProt P22607); experiment: as above
Outline: as §2

FGFR4 = FGFR4 (Homo sapiens (Human), UniProt P22455); experiment: as above
Outline: as §2

FGFR2 = FGFR2 (Homo sapiens (Human), UniProt P21802); experiment: as above
Outline: as §2

FGFR3 (V555M) = FGFR3 (V555M) (Homo sapiens (Human), UniProt P22607, V555M); experiment: as above; conditions: V555M mutant
Outline: as §2

[3] = tested on: RT112/84 cells (FGFR3-fusion); experiment: RT112/84 cancer cell line cell viability assay (CellTiter-Glo 2.0); format: cell-based; conditions: Homo sapiens, 72 hours, Cell Titer Glo 2.0
Outline: (§3)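 RT112/84, UM-UC-14 and KG-1 cells (10,000/well, RPMI1640 with 10% FBS) were treated with a 9-dose, 10-fold series starting at 30 μM, in triplicate, for 72 h at 37 °C. ATP was read by CellTiter-Glo 2.0 luminescence relative to DMSO controls, and IC50 was fitted with a 4-parameter sigmoidal model.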

FGFR1-BCR Ba/F3 cells = FGFR1-BCR Ba/F3 cells (Homo sapiens, UniProt P11362); experiment: Ba/F3 cell viability assay (CellTiter-Glo 2.0), FGFR1-BCR Ba/F3; format: cell-based; conditions: read-out: Ba/F3 Cells FGFR1 (IC50 nM), 48 hours, Cell Titer Glo 2.0
Outline: as §1

[4] = tested on: KG-1 cells (FGFR1-fusion); experiment: KG-1 cancer cell line cell viability assay (CellTiter-Glo 2.0); format: cell-based; conditions: Homo sapiens, 72 hours, Cell Titer Glo 2.0
Outline: as §3

Chain of FGFR2 (P21802 22-821): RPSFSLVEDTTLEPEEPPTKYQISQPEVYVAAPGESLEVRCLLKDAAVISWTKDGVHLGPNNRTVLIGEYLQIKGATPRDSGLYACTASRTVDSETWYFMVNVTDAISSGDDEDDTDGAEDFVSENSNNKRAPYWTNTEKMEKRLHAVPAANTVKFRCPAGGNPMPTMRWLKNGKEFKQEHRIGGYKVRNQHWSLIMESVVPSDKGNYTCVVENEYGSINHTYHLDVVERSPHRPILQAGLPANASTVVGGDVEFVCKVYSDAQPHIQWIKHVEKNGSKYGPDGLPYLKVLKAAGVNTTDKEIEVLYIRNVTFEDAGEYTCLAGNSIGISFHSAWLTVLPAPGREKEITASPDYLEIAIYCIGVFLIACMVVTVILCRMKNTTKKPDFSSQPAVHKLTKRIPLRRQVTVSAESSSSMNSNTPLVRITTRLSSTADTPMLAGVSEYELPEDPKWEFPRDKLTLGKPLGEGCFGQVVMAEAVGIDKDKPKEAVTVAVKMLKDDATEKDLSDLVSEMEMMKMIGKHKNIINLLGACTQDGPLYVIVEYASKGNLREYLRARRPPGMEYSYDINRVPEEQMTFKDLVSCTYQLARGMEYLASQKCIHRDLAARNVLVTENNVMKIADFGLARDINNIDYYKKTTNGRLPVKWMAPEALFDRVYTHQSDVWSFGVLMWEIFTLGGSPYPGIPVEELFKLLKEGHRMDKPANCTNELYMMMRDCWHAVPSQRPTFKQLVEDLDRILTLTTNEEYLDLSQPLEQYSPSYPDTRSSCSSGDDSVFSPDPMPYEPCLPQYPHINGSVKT
Chain of FGFR3 (P22607 23-806): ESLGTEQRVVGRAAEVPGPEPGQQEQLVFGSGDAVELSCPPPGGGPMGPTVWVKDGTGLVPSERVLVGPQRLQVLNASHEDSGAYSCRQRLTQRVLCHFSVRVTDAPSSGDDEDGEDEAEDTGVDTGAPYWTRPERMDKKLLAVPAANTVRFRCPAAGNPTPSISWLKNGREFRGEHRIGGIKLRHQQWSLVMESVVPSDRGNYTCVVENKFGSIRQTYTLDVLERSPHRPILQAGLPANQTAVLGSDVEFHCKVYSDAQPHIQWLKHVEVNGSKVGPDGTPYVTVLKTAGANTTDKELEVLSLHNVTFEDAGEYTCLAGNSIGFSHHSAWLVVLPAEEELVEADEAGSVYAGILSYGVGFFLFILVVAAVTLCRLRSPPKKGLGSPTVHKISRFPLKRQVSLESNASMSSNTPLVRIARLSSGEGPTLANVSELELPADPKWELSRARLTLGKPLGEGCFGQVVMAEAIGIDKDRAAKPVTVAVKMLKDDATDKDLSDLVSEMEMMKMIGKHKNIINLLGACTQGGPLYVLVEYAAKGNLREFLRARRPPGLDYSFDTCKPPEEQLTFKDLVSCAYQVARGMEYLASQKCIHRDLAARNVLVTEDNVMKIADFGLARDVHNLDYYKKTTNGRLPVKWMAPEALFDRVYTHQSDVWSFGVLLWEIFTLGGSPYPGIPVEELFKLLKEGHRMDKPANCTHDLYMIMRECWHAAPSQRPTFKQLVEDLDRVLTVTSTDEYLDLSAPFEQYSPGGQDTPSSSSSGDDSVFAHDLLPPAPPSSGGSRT
Chain of FGFR3-BAIAP2L1 Ba/F3 cells (P22607 23-806 limits assumed, change not shown): as the sequence (P22607 23-806) above
Chain of FGFR3 (V555M) (P22607 23-806 V555M): as the sequence (P22607 23-806) above, with V533M counted along it
Chain of FGFR1-BCR Ba/F3 cells (P11362 22-822 limits assumed, change not shown): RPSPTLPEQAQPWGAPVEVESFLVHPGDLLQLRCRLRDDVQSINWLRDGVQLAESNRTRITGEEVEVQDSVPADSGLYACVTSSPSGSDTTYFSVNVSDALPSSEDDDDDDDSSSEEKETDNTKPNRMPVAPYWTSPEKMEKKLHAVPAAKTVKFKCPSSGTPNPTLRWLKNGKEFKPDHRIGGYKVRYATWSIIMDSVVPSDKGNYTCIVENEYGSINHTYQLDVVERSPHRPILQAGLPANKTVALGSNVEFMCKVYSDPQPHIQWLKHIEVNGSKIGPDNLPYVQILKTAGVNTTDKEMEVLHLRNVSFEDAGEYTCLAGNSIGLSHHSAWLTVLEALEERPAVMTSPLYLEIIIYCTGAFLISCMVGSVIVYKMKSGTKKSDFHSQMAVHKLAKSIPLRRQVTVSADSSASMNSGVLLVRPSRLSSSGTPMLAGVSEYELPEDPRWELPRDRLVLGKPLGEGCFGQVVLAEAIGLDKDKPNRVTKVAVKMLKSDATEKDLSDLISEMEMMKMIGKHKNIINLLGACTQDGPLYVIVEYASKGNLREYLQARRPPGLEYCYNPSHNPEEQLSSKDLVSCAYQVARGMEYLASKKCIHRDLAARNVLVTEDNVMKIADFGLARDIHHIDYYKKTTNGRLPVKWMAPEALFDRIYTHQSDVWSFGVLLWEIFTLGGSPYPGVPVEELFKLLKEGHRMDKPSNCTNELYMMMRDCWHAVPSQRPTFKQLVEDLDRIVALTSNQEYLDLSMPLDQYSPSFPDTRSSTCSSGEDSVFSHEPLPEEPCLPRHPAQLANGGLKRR
Chain of FGFR1 (P11362 22-822): as the sequence (P11362 22-822 limits assumed, change not shown) above
Chain of FGFR4 (P22455 22-802): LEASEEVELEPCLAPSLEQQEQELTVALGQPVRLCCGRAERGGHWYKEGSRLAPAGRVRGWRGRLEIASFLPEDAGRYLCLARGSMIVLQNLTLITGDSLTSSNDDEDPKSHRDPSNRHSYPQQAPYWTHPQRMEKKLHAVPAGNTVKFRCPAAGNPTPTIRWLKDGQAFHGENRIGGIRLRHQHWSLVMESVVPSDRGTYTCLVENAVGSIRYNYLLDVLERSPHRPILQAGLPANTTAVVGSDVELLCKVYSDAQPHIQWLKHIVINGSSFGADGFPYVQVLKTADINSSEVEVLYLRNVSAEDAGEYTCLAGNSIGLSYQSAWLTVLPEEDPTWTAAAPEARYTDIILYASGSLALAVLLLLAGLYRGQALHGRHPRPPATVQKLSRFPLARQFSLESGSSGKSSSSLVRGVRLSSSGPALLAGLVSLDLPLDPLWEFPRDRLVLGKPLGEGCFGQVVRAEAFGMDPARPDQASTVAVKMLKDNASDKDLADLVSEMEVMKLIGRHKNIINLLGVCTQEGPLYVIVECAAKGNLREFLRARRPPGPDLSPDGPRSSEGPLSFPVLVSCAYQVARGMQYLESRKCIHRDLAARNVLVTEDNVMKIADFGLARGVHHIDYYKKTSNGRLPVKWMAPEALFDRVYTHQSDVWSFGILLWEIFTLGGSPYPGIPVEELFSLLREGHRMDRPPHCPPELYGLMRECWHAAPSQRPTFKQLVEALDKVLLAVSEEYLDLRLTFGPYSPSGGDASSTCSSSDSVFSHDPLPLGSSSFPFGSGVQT

Structure (SMILES) | Ba/F3 FGFR1/FGFR3 Selectivity [1] | IC50 [1] [nM] | IC50 [2] [nM] | Kd (FGFR1) [nM] | Kd (FGFR3) [nM] | Kd (FGFR4) [nM] | Kd (FGFR2) [nM] | Kd (FGFR3 (V555M)) [nM] | IC50 [3] [nM] | IC50 (FGFR1-BCR Ba/F3 cells) [nM] | IC50 [4] [nM]
C[C@@H](Oc1ccc2[nH]nc(-c3cnc(N4CCN(C(=O)N5CCN(C)CC5)CC4)nc3)c2c1)c1c(Cl)cncc1Cl [Example 15, [4-[5-[5-[(1R)-1-(3,5-dichloro-4-pyridyl)ethoxy]-1H-indazol-3-yl]pyrimidin-2-yl]piperazin-1-yl]-(4-methylpiperazin-1-yl)methanone] | 10 | 20 to 100 | 1 to 20 | 1 to 20 | 1 to 20 | 1 to 20 | 1 to 20 | 1 to 20 | 1 to 20 | > 300 | 20 to 100
C[C@@H](Oc1ccc2[nH]nc(-c3cnc(N4CCC5(CC4)CNC(=O)C5)nc3)c2c1)c1c(Cl)cncc1Cl [Example 49, 8-[5-[5-[(1R)-1-(3,5-dichloro-4-pyridyl)ethoxy]-1H-indazol-3-yl]pyrimidin-2-yl]-2,8-diazaspiro[4.5]decan-3-one] | 10 | 1 to 20 | 20 to 100 | 20 to 100 | 1 to 20 | 1 to 20 | 20 to 100 | 1 to 20 | 20 to 100 | 100 to 300 | 100 to 300
C[C@@H](Oc1ccc2[nH]nc(-c3ccc(N4CC5(C4)CN(S(C)(=O)=O)C5)nc3)c2c1)c1c(Cl)cncc1Cl [Example 46, 5-[(1R)-1-(3,5-dichloro-4-pyridyl)ethoxy]-3-[6-(2-methylsulfonyl-2,6-diazaspiro[3.3]heptan-6-yl)-3-pyridyl]-1H-indazole] | 14 | 1 to 20 | 1 to 20 | 1 to 20 | 1 to 20 | 1 to 20 | 1 to 20 | 1 to 20 | 1 to 20 | 20 to 100 | 20 to 100
CCC(=O)N1CCN(c2ccc(-c3n[nH]c4ccc(O[C@H](C)c5c(Cl)cncc5Cl)cc34)cn2)CC1 [Example 9, 1-[4-[5-[5-[(1R)-1-(3,5-dichloro-4-pyridyl)ethoxy]-1H-indazol-3-yl]-2-pyridyl]piperazin-1-yl]propan-1-one] | 19 | 1 to 20 | 1 to 20 | 1 to 20 | 1 to 20 | 1 to 20 | 1 to 20 | 1 to 20 | 1 to 20 | 100 to 300 | 20 to 100
Cc1cncc(C)c1[C@@H](C)Oc1ccc2[nH]nc(-c3ccc(N4CC5(C4)CN(S(C)(=O)=O)C5)nc3)c2c1 [Example 139, 5-[(1R)-1-(3,5-dimethyl-4-pyridyl)ethoxy]-3-[6-(2-methylsulfonyl-2,6-diazaspiro[3.3]heptan-6-yl)-3-pyridyl]-1H-indazole] | 14 | 20 to 100 | 1 to 20 | 20 to 100 | 1 to 20 | 1 to 20 | 1 to 20 | 1 to 20 | 1 to 20 | 100 to 300 | 100 to 300
C[C@@H](Oc1ccc2[nH]nc(-c3cnc(N4CCCN(C5COC5)CC4)nc3)c2c1)c1c(Cl)cncc1Cl [Example 60, 5-[(1R)-1-(3,5-Dichloro-4-pyridyl)ethoxy]-3-[2-[4-(oxetan-3-yl)-1,4-diazepan-1-yl]pyrimidin-5-yl]-1H-indazole] | 13 | 1 to 20 | 20 to 100 | 1 to 20 | 1 to 20 | 1 to 20 | 1 to 20 | 1 to 20 | 20 to 100 | 100 to 300 | 100 to 300
C[C@@H](Oc1ccc2[nH]nc(-c3cnc(N4CCC5(CCN(C)C5=O)CC4)nc3)c2c1)c1c(Cl)cncc1Cl [Example 51, 8-[5-[5-[(1R)-1-(3,5-dichloro-4-pyridyl)ethoxy]-1H-indazol-3-yl]pyrimidin-2-yl]-2-methyl-2,8-diazaspiro[4.5]decan-1-one] | 7 | 20 to 100 | 20 to 100 | 20 to 100 | 1 to 20 | 1 to 20 | 20 to 100 | 1 to 20 | 20 to 100 | 100 to 300 | 100 to 300
C[C@@H](Oc1ccc2[nH]nc(-c3ccc(N4CCN(C(=O)N(C)C)C5(CC5)C4)nc3)c2c1)c1c(Cl)cncc1Cl [Example 23, (R)-7-(5-(5-(1-(3,5-dichloropyridin-4-yl)ethoxy)-1H-indazol-3-yl)pyridin-2-yl)-N,N-dimethyl-4,7-diazaspiro[2.5]octane-4-carboxamide] | 16 | 1 to 20 | 1 to 20 | > 300 | 100 to 300 | > 300 | > 300 | 20 to 100 | 1 to 20 | 100 to 300 | 100 to 300
C[C@@H](Oc1ccc2[nH]nc(-c3ccc(N4CCC5(CCCO5)CC4)nc3)c2c1)c1c(Cl)cncc1Cl [Example 26, 8-[5-[5-[(1R)-1-(3,5-dichloro-4-pyridyl)ethoxy]-1H-indazol-3-yl]-2-pyridyl]-1-oxa-8-azaspiro[4.5]decane] | 28 | 20 to 100 | 20 to 100 | 20 to 100 | 1 to 20 | 1 to 20 | 20 to 100 | 1 to 20 | 20 to 100 | > 300 | > 300
C[C@@H](Oc1ccc2[nH]nc(-c3cnc(N4CCC5(CCC(=O)N5)CC4)nc3)c2c1)c1c(Cl)cncc1Cl [Example 48, 8-[5-[5-[(1R)-1-(3,5-dichloro-4-pyridyl)ethoxy]-1H-indazol-3-yl]pyrimidin-2-yl]-1,8-diazaspiro[4.5]decan-2-one] | 8 | 20 to 100 | 20 to 100 | 20 to 100 | 1 to 20 | 1 to 20 | 20 to 100 | 1 to 20 | 20 to 100 | 100 to 300 | 100 to 300
C[C@@H](Oc1ccc2[nH]nc(-c3ccc(N4CCN(C(=O)N5CCN(C)CC5)CC4)nc3)c2c1)c1c(Cl)cncc1Cl [Example 4, [4-[5-[5-[(1R)-1-(3,5-dichloro-4-pyridyl)ethoxy]-1H-indazol-3-yl]-2-pyridyl]piperazin-1-yl]-(4-methylpiperazin-1-yl)methanone] | 29 | 1 to 20 | 1 to 20 | 1 to 20 | 1 to 20 | 1 to 20 | 1 to 20 | 1 to 20 | 1 to 20 | 100 to 300 | 20 to 100
C[C@@H](Oc1ccc2[nH]nc(-c3cnc(N4CCN(S(C)(=O)=O)CC4)nc3)c2c1)c1c(Cl)cncc1Cl [Example 14, 5-[(1R)-1-(3,5-Dichloro-4-pyridyl)ethoxy]-3-[2-(4-methylsulfonylpiperazin-1-yl)pyrimidin-5-yl]-1H-indazole] | 18 | 1 to 20 | 20 to 100 | 1 to 20 | 1 to 20 | 1 to 20 | 20 to 100 | 1 to 20 | 1 to 20 | > 300 | 100 to 300
